Data reported in publication PMC9863297, “Intermolecular Interactions of Edaravone in Aqueous Solutions of Ethaline and Glyceline Inferred from Experiments and Quantum Chemistry Computations” (Molecules, 2023).
Values after ≈ are worked out from the molar mass of the structure shown. Like-named read-outs stand apart in the source and are kept apart here.

Assay: Edaravone solubility, slurry/shake-flask method with spectrophotometric determination at 243 nm
Type: physicochemical
Conditions: for solubility at 24 h: read-out: cE solubility concentration; for volume of saturated solution containing the recommended 60 mg: solubility at 298.15 K
Procedure: The first step in obtaining a calibration curve was the preparation of a stock solution of edaravone with a concentration of 2.3 mg/mL. This initial solution was successfully diluted in 10 mL volumetric flasks with methanol and the obtained solutions with decreasing concentrations were measured spectrophotometrically. […] Three separate curves were obtained, and the final curve resulted from averaging. […] The limits of detection (LOD) and quantification (LOQ) were calculated as 5.899∙10^−4 mg/mL and 1.770∙10^−3 mg/mL, respectively.
All of the studied deep eutectic solvents included choline chloride, while the second constituent was either glycerol or ethylene glycol. In order to prepare a DES formulation, choline chloride was mixed with the second compound in different molar ratios in sealed test tubes and placed in a water bath at 363.15 K until the formation of a uniform solution. The obtained DES were either used in their neat form or water was added to them in different proportions in order to form binary systems.
During the next stage, edaravone was added in excess amounts to the test tubes containing both neat DES and binary mixtures, which enabled us to obtain its saturated solutions. Samples prepared in such a manner were placed in an Orbital Shaker Incubator ES-20/60 from Biosan (Riga, Latvia) and incubated for 24 h at different temperatures, namely 298.15 K, 303.15 K, 308.15 K and 313.15 K. The temperature adjustment accuracy was 0.1 K and its variability in a 24 h cycle was ±0.5 K. Apart from heating, all of the samples were mixed at 60 rev/min. The increased viscosity and density of DES systems required the samples to be centrifuged at 1000 rev/min for 5 min with the use of EBA 20 centrifuge from Hettich (Tuttlingen, Germany) enabling the undissolved precipitate to remain on the bottom of the test tubes. Next, the samples were filtered using a syringe equipped with a PTFE syringe filer with 0.22 µm pore size. In order to avoid precipitation, the test tubes, syringes and filters were initially heated at a temperature equal to the one of the handled samples. Finally, small amounts of the obtained filtrate were transferred to test tubes filled with methanol and the diluted samples were measured spectrophotometrically. Additionally, for the determination of the mole fractions of edaravone, the density of the samples was measured by weighing a fixed volume of the solution in 10 mL volumetric flasks.
For determining the solubility of edaravone in the studied systems, the samples prepared, as described above, were measured spectrophotometrically using an A360 spectrophotometer from AOE Instruments (Shanghai, China). The spectra were recorded in the 190 nm to 500 nm wavelength range and 1 nm resolution. Methanol was used for the initial calibration of the spectrophotometer and for the dilution of the measured samples, which was conducted in order for the absorbance values to remain below 2.5. The absorbance values at 243 nm were taken into account and based on the calibration curve prepared earlier, the concentration of edaravone in the samples was determined, followed by its mole fractions. The values were averaged from three separate measurements.

- xE mole fraction solubility (neat DES choline chloride + glycerol (GLE) 1:2 molar ratio (x*GLE = 1.0), 303.15 K): 1606.43 (±50.52) mole fraction ∙10^4
- xE mole fraction solubility (neat DES choline chloride + glycerol (GLE) 1:2 molar ratio (x*GLE = 1.0), 308.15 K): 2151.57 (±64.56) mole fraction ∙10^4
- xE mole fraction solubility (neat DES choline chloride + glycerol (GLE) 1:2 molar ratio (x*GLE = 1.0), 313.15 K): 2991.42 (±64.1) mole fraction ∙10^4
- xE mole fraction solubility (neat DES choline chloride + glycerol (GLE) 1:4 molar ratio, 298.15 K): 926.44 (±23.62) mole fraction ∙10^4
- xE mole fraction solubility (neat DES choline chloride + glycerol (GLE) 1:4 molar ratio, 303.15 K): 1321.28 (±36.17) mole fraction ∙10^4
- xE mole fraction solubility (neat DES choline chloride + glycerol (GLE) 1:4 molar ratio, 308.15 K): 1861.97 (±40.45) mole fraction ∙10^4
- xE mole fraction solubility (neat DES choline chloride + glycerol (GLE) 1:4 molar ratio, 313.15 K): 2739.72 (±65.05) mole fraction ∙10^4
- solubility at 24 h (neat deep eutectic solvent, 25 °C, organic solvent or mixture, thermodynamic from solid, neat DES choline chloride + ethylene glycol (ETA) 1:1 molar ratio, 298.15 K): 190 mg/mL
- solubility at 24 h (neat deep eutectic solvent, 25 °C, organic solvent or mixture, thermodynamic from solid, neat DES choline chloride + ethylene glycol (ETA) 1:2 molar ratio (x*ETA = 1.0), 298.15 K): 303 mg/mL
- solubility at 24 h (neat deep eutectic solvent, 25 °C, organic solvent or mixture, thermodynamic from solid, neat DES choline chloride + ethylene glycol (ETA) 1:4 molar ratio, 298.15 K): 280 mg/mL
- solubility at 24 h (neat deep eutectic solvent, 25 °C, organic solvent or mixture, thermodynamic from solid, neat DES choline chloride + glycerol (GLE) 1:1 molar ratio, 298.15 K): 138 mg/mL
- solubility at 24 h (neat deep eutectic solvent, 30 °C, organic solvent or mixture, thermodynamic from solid, neat DES choline chloride + ethylene glycol (ETA) 1:1 molar ratio, 303.15 K): 252 mg/mL
- solubility at 24 h (neat deep eutectic solvent, 30 °C, organic solvent or mixture, thermodynamic from solid, neat DES choline chloride + ethylene glycol (ETA) 1:2 molar ratio (x*ETA = 1.0), 303.15 K): 392 mg/mL
- solubility at 24 h (neat deep eutectic solvent, 30 °C, organic solvent or mixture, thermodynamic from solid, neat DES choline chloride + ethylene glycol (ETA) 1:4 molar ratio, 303.15 K): 347 mg/mL
- solubility at 24 h (neat deep eutectic solvent, 35 °C, organic solvent or mixture, thermodynamic from solid, neat DES choline chloride + ethylene glycol (ETA) 1:1 molar ratio, 308.15 K): 360 mg/mL
- solubility at 24 h (neat deep eutectic solvent, 35 °C, organic solvent or mixture, thermodynamic from solid, neat DES choline chloride + ethylene glycol (ETA) 1:2 molar ratio (x*ETA = 1.0), 308.15 K): 499 mg/mL
- solubility at 24 h (neat deep eutectic solvent, 35 °C, organic solvent or mixture, thermodynamic from solid, neat DES choline chloride + ethylene glycol (ETA) 1:4 molar ratio, 308.15 K): 467 mg/mL
- solubility at 24 h (neat deep eutectic solvent, 40 °C, organic solvent or mixture, thermodynamic from solid, neat DES choline chloride + ethylene glycol (ETA) 1:1 molar ratio, 313.15 K): 484 mg/mL
- solubility at 24 h (neat deep eutectic solvent, 40 °C, organic solvent or mixture, thermodynamic from solid, neat DES choline chloride + ethylene glycol (ETA) 1:2 molar ratio (x*ETA = 1.0), 313.15 K): 593 mg/mL
- solubility at 24 h (neat deep eutectic solvent, 40 °C, organic solvent or mixture, thermodynamic from solid, neat DES choline chloride + ethylene glycol (ETA) 1:4 molar ratio, 313.15 K): 602 mg/mL
- xE mole fraction solubility (neat water (x*DES = 0.0), 298.15 K): 1.73(±0.01) mole fraction ∙10^4
- xE mole fraction solubility (neat water (x*DES = 0.0), 303.15 K): 1.78(±0.01) mole fraction ∙10^4
- xE mole fraction solubility (neat water (x*DES = 0.0), 308.15 K): 1.84(±0.02) mole fraction ∙10^4
- xE mole fraction solubility (neat water (x*DES = 0.0), 313.15 K): 1.93(±0.01) mole fraction ∙10^4
- mole fraction solubility ratio, ethylene glycol system vs glycerol system (optimal 1:2 composition, average over temperatures): 1.34 times
- volume of saturated solution containing the recommended 60 mg (optimal aqueous composition ETA): 0.14 mL
- volume of saturated solution containing the recommended 60 mg (optimal aqueous composition GLE): 0.18 mL
- solubility increase in optimal binary composition compared to neat DES (systems with ethylene glycol, x*DES = 0.6, average): 17%
- xE mole fraction solubility (water + ETA (ChCl:EG 1:2), x*ETA = 0.2, 298.15 K): 454.10(±5.48) mole fraction ∙10^4
- xE mole fraction solubility (water + ETA (ChCl:EG 1:2), x*ETA = 0.2, 303.15 K): 574.18(±8.89) mole fraction ∙10^4
- xE mole fraction solubility (water + ETA (ChCl:EG 1:2), x*ETA = 0.2, 308.15 K): 742.26(±18.45) mole fraction ∙10^4
- xE mole fraction solubility (water + ETA (ChCl:EG 1:2), x*ETA = 0.2, 313.15 K): 890.33(±10.84) mole fraction ∙10^4
- xE mole fraction solubility (water + ETA (ChCl:EG 1:2), x*ETA = 0.4, 298.15 K): 1353.93(±5.00) mole fraction ∙10^4
- xE mole fraction solubility (water + ETA (ChCl:EG 1:2), x*ETA = 0.4, 303.15 K): 1819.02(±41.45) mole fraction ∙10^4
- xE mole fraction solubility (water + ETA (ChCl:EG 1:2), x*ETA = 0.4, 308.15 K): 2386.29(±27.09) mole fraction ∙10^4
- xE mole fraction solubility (water + ETA (ChCl:EG 1:2), x*ETA = 0.4, 313.15 K): 2954.32(±49.04) mole fraction ∙10^4
- xE mole fraction solubility (water + ETA (ChCl:EG 1:2), x*ETA = 0.5, 298.15 K): 1754.56(±31.02) mole fraction ∙10^4
- xE mole fraction solubility (water + ETA (ChCl:EG 1:2), x*ETA = 0.5, 303.15 K): 2316.25(±38.27) mole fraction ∙10^4
- xE mole fraction solubility (water + ETA (ChCl:EG 1:2), x*ETA = 0.5, 308.15 K): 3073.71(±53.04) mole fraction ∙10^4
- xE mole fraction solubility (water + ETA (ChCl:EG 1:2), x*ETA = 0.5, 313.15 K): 3822.75(±61.93) mole fraction ∙10^4
- xE mole fraction solubility (water + ETA (ChCl:EG 1:2), x*ETA = 0.6, 298.15 K): 1934.93(±34.18) mole fraction ∙10^4
- xE mole fraction solubility (water + ETA (ChCl:EG 1:2), x*ETA = 0.6, 303.15 K): 2552.36(±52.56) mole fraction ∙10^4
- xE mole fraction solubility (water + ETA (ChCl:EG 1:2), x*ETA = 0.6, 308.15 K): 3306.79(±48.29) mole fraction ∙10^4
- xE mole fraction solubility (water + ETA (ChCl:EG 1:2), x*ETA = 0.6, 313.15 K): 3982.72(±70.26) mole fraction ∙10^4
- xE mole fraction solubility (water + ETA (ChCl:EG 1:2), x*ETA = 0.8, 298.15 K): 1713.96(±31.15) mole fraction ∙10^4
- xE mole fraction solubility (water + ETA (ChCl:EG 1:2), x*ETA = 0.8, 303.15 K): 2241.64(±42.78) mole fraction ∙10^4
- xE mole fraction solubility (water + ETA (ChCl:EG 1:2), x*ETA = 0.8, 308.15 K): 2989.20(±42.33) mole fraction ∙10^4
- xE mole fraction solubility (water + ETA (ChCl:EG 1:2), x*ETA = 0.8, 313.15 K): 3720.80(±28.54) mole fraction ∙10^4
- xE mole fraction solubility (water + GLE (ChCl:GL 1:2), x*GLE = 0.2, 298.15 K): 235.51(±9.67) mole fraction ∙10^4
- xE mole fraction solubility (water + GLE (ChCl:GL 1:2), x*GLE = 0.2, 303.15 K): 309.2(±4.30) mole fraction ∙10^4
- xE mole fraction solubility (water + GLE (ChCl:GL 1:2), x*GLE = 0.2, 308.15 K): 435.07(±4.04) mole fraction ∙10^4
- xE mole fraction solubility (water + GLE (ChCl:GL 1:2), x*GLE = 0.2, 313.15 K): 564.61(±7.05) mole fraction ∙10^4
- xE mole fraction solubility (water + GLE (ChCl:GL 1:2), x*GLE = 0.4, 298.15 K): 743.88(±5.92) mole fraction ∙10^4
- xE mole fraction solubility (water + GLE (ChCl:GL 1:2), x*GLE = 0.4, 303.15 K): 1116.64(±2.70) mole fraction ∙10^4
- xE mole fraction solubility (water + GLE (ChCl:GL 1:2), x*GLE = 0.4, 308.15 K): 1444.07(±14.86) mole fraction ∙10^4
- xE mole fraction solubility (water + GLE (ChCl:GL 1:2), x*GLE = 0.4, 313.15 K): 2014.09(±17.34) mole fraction ∙10^4
- xE mole fraction solubility (water + GLE (ChCl:GL 1:2), x*GLE = 0.5, 298.15 K): 1121.47(±10.85) mole fraction ∙10^4
- xE mole fraction solubility (water + GLE (ChCl:GL 1:2), x*GLE = 0.5, 303.15 K): 1673.69(±20.61) mole fraction ∙10^4
- xE mole fraction solubility (water + GLE (ChCl:GL 1:2), x*GLE = 0.5, 308.15 K): 2236.41(±28.00) mole fraction ∙10^4
- xE mole fraction solubility (water + GLE (ChCl:GL 1:2), x*GLE = 0.5, 313.15 K): 3065.17(±55.82) mole fraction ∙10^4
- xE mole fraction solubility (water + GLE (ChCl:GL 1:2), x*GLE = 0.6, 298.15 K): 1450.22(±11.26) mole fraction ∙10^4
- xE mole fraction solubility (water + GLE (ChCl:GL 1:2), x*GLE = 0.6, 303.15 K): 2089.77(±58.10) mole fraction ∙10^4
- xE mole fraction solubility (water + GLE (ChCl:GL 1:2), x*GLE = 0.6, 308.15 K): 2723.73(±61.99) mole fraction ∙10^4
- xE mole fraction solubility (water + GLE (ChCl:GL 1:2), x*GLE = 0.6, 313.15 K): 3567.08(±42.51) mole fraction ∙10^4
- xE mole fraction solubility (water + GLE (ChCl:GL 1:2), x*GLE = 0.8, 298.15 K): 1305.70(±26.15) mole fraction ∙10^4
- xE mole fraction solubility (water + GLE (ChCl:GL 1:2), x*GLE = 0.8, 303.15 K): 1852.98(±39.43) mole fraction ∙10^4
- xE mole fraction solubility (water + GLE (ChCl:GL 1:2), x*GLE = 0.8, 308.15 K): 2525.56(±24.65) mole fraction ∙10^4
- xE mole fraction solubility (water + GLE (ChCl:GL 1:2), x*GLE = 0.8, 313.15 K): 3420.95(±31.16) mole fraction ∙10^4
- solubility at 24 h (water, neat water (x*DES = 0.0), 298.15 K): 1.72 mg/mL (≈ 9.87 mM)
- solubility at 24 h (water, neat water (x*DES = 0.0), 303.15 K): 1.79 mg/mL (≈ 10.3 mM)
- solubility at 24 h (water, neat water (x*DES = 0.0), 308.15 K): 1.87 mg/mL (≈ 10.7 mM)
- solubility at 24 h (water, neat water (x*DES = 0.0), 313.15 K): 1.96 mg/mL (≈ 11.3 mM)
SMILES: CC1=NN(c2ccccc2)C(=O)C1 [edaravone, 5-methyl-2-phenyl-4H-pyrazol-3-one]
